Laboratory results from the NIST ThermoML archive (doi:10.1016/j.jct.2006.05.008).
± gives the expanded uncertainty stated by the source.

Experiment: molar heat capacity at constant pressure
Settings: 101.33 kPa, Small (less than 1 g) adiabatic calorimetry

CCCCn1cc[n+](C)c1.[Br-] [1-butyl-3-methylimidazolium bromide]
Settings	molar heat capacity at constant pressure [J/K/mol]
5 K, Crystal	0.594 ± 0.036
5.112 K, Crystal	0.6398 ± 0.033
5.416 K, Glass	1.391 ± 0.048
5.455 K, Crystal	0.7976 ± 0.035
5.698 K, Glass	1.608 ± 0.044
5.764 K, Crystal	0.9598 ± 0.039
6.014 K, Glass	1.871 ± 0.055
6.078 K, Crystal	1.144 ± 0.042
6.368 K, Glass	2.187 ± 0.061
6.428 K, Crystal	1.37 ± 0.046
6.758 K, Glass	2.559 ± 0.068
6.809 K, Crystal	1.648 ± 0.044
7.151 K, Glass	2.969 ± 0.075
7.192 K, Crystal	1.957 ± 0.057
7.546 K, Glass	3.418 ± 0.081
7.578 K, Crystal	2.288 ± 0.061
7.943 K, Glass	3.889 ± 0.088
7.966 K, Crystal	2.656 ± 0.068
8.343 K, Glass	4.396 ± 0.096
8.356 K, Crystal	3.052 ± 0.075
8.743 K, Glass	4.921 ± 0.1
8.747 K, Crystal	3.473 ± 0.081
9.141 K, Crystal	3.927 ± 0.088
9.142 K, Glass	5.507 ± 0.11
9.535 K, Crystal	4.4 ± 0.094
9.542 K, Glass	6.116 ± 0.12
9.931 K, Crystal	4.904 ± 0.1
9.941 K, Glass	6.777 ± 0.13
10 K, Crystal	5 ± 0.1
10.43 K, Crystal	5.581 ± 0.11
10.45 K, Glass	7.669 ± 0.15
11.04 K, Crystal	6.447 ± 0.12
11.06 K, Glass	8.866 ± 0.16
11.65 K, Crystal	7.367 ± 0.14
11.68 K, Glass	9.609 ± 0.17
12.26 K, Crystal	8.338 ± 0.15
12.33 K, Glass	10.33 ± 0.18
12.88 K, Crystal	9.361 ± 0.16
12.97 K, Glass	11.38 ± 0.19
13.49 K, Crystal	10.43 ± 0.18
13.59 K, Glass	12.45 ± 0.2
14.11 K, Crystal	11.52 ± 0.19
14.22 K, Glass	13.57 ± 0.22
14.73 K, Crystal	12.65 ± 0.2
14.85 K, Glass	14.68 ± 0.23
15 K, Crystal	13.15 ± 0.21
15.46 K, Crystal	14.04 ± 0.22
15.59 K, Glass	16.03 ± 0.24
16.3 K, Crystal	15.65 ± 0.23
16.44 K, Glass	17.61 ± 0.26
17.14 K, Crystal	17.33 ± 0.25
17.29 K, Glass	19.2 ± 0.27
17.98 K, Crystal	19.01 ± 0.27
18.14 K, Glass	20.83 ± 0.29
18.82 K, Crystal	20.74 ± 0.28
18.99 K, Glass	22.44 ± 0.3
19.66 K, Crystal	22.48 ± 0.3
19.84 K, Glass	24.05 ± 0.31
20 K, Crystal	23.22 ± 0.3
20.8 K, Crystal	24.92 ± 0.31
20.98 K, Glass	26.32 ± 0.33
22.23 K, Crystal	27.96 ± 0.33
22.44 K, Glass	29.08 ± 0.34
23.67 K, Crystal	30.95 ± 0.35
23.89 K, Glass	31.88 ± 0.35
25 K, Crystal	33.71 ± 0.36
25.11 K, Crystal	33.93 ± 0.36
25.34 K, Glass	34.61 ± 0.36
26.55 K, Crystal	36.89 ± 0.37
26.79 K, Glass	37.3 ± 0.37
28 K, Crystal	39.85 ± 0.37
28.25 K, Glass	39.98 ± 0.37
29.46 K, Crystal	42.71 ± 0.37
29.71 K, Glass	42.64 ± 0.37
30 K, Crystal	43.79 ± 0.32
30.91 K, Crystal	45.58 ± 0.33
31.17 K, Glass	45.28 ± 0.33
32.37 K, Crystal	48.31 ± 0.34
32.64 K, Glass	47.85 ± 0.34
33.83 K, Crystal	50.92 ± 0.36
34.1 K, Glass	50.34 ± 0.35
35 K, Crystal	52.97 ± 0.37
35.29 K, Crystal	53.48 ± 0.37
35.56 K, Glass	52.74 ± 0.37
36.75 K, Crystal	55.93 ± 0.38
37.02 K, Glass	55.06 ± 0.38
38.21 K, Crystal	58.33 ± 0.39
38.48 K, Glass	57.36 ± 0.39
39.67 K, Crystal	60.64 ± 0.41
39.95 K, Glass	59.57 ± 0.4
40 K, Crystal	61.09 ± 0.41
41.38 K, Crystal	63.18 ± 0.42
41.66 K, Glass	62.09 ± 0.41
43.35 K, Crystal	66.08 ± 0.43
43.62 K, Glass	64.96 ± 0.43
45 K, Crystal	68.34 ± 0.44
45.33 K, Crystal	68.81 ± 0.44
45.59 K, Glass	67.7 ± 0.44
47.31 K, Crystal	71.45 ± 0.46
47.56 K, Glass	70.47 ± 0.45
49.28 K, Crystal	73.96 ± 0.47
49.53 K, Glass	73.04 ± 0.47
50 K, Crystal	74.81 ± 0.47
51.25 K, Crystal	76.33 ± 0.48
51.5 K, Glass	75.54 ± 0.48
53.22 K, Crystal	78.7 ± 0.49
53.47 K, Glass	77.99 ± 0.49
55.2 K, Crystal	80.87 ± 0.5
55.43 K, Glass	80.39 ± 0.5
57.18 K, Crystal	82.96 ± 0.51
57.4 K, Glass	82.69 ± 0.51
59.15 K, Crystal	84.96 ± 0.53
59.37 K, Glass	85.02 ± 0.53
60 K, Crystal	85.89 ± 0.5
61.12 K, Crystal	87.04 ± 0.53
61.34 K, Glass	87.33 ± 0.54
63.1 K, Crystal	89.03 ± 0.55
63.31 K, Glass	89.56 ± 0.55
65.08 K, Crystal	90.98 ± 0.55
65.29 K, Glass	91.73 ± 0.56
67.06 K, Crystal	92.73 ± 0.56
67.27 K, Glass	93.78 ± 0.57
69.04 K, Crystal	94.46 ± 0.57
69.25 K, Glass	95.85 ± 0.58
70 K, Crystal	95.2 ± 0.58
71.02 K, Crystal	96.12 ± 0.58
71.23 K, Glass	97.82 ± 0.59
73.01 K, Crystal	97.71 ± 0.59
73.21 K, Glass	99.78 ± 0.6
75 K, Crystal	99.35 ± 0.6
75.2 K, Glass	101.73 ± 0.61
76.99 K, Crystal	101.08 ± 0.6
77.19 K, Glass	103.84 ± 0.62
78.99 K, Crystal	102.78 ± 0.61
79.19 K, Glass	105.86 ± 0.63
79.88 K, Crystal	103.13 ± 0.62
80 K, Crystal	103.3 ± 0.58
80.98 K, Crystal	104.4 ± 0.62
81.18 K, Glass	107.71 ± 0.64
81.99 K, Glass	108.36 ± 0.64
82.98 K, Crystal	105.64 ± 0.63
83.34 K, Crystal	105.95 ± 0.63
84.53 K, Glass	110.36 ± 0.65
84.99 K, Crystal	106.91 ± 0.64
85.34 K, Crystal	107.22 ± 0.64
86.53 K, Glass	112.03 ± 0.66
87.34 K, Crystal	108.66 ± 0.64
88.52 K, Glass	113.8 ± 0.67
89.34 K, Crystal	110.09 ± 0.65
90 K, Crystal	110.5 ± 0.67
90.52 K, Glass	115.58 ± 0.66
91.34 K, Crystal	111.54 ± 0.65
92.52 K, Glass	117.14 ± 0.67
93.34 K, Crystal	112.75 ± 0.65
94.51 K, Glass	118.71 ± 0.67
95.34 K, Crystal	114.08 ± 0.66
96.52 K, Glass	120.45 ± 0.68
97.35 K, Crystal	115.46 ± 0.66
98.52 K, Glass	121.83 ± 0.69
99.35 K, Crystal	116.72 ± 0.67
100 K, Crystal	117.1 ± 0.67
100.53 K, Glass	123.29 ± 0.69
101.36 K, Crystal	118.12 ± 0.67
102.54 K, Glass	125.09 ± 0.7
103.37 K, Crystal	119.58 ± 0.68
104.55 K, Glass	126.48 ± 0.71
105.39 K, Crystal	120.44 ± 0.68
106.56 K, Glass	127.9 ± 0.71
107.41 K, Crystal	121.58 ± 0.69
108.57 K, Glass	129.45 ± 0.72
109.43 K, Crystal	122.78 ± 0.69
110 K, Crystal	123.1 ± 0.67
110.59 K, Glass	130.89 ± 0.72
111.44 K, Crystal	123.99 ± 0.7
112.61 K, Glass	132.26 ± 0.73
113.47 K, Crystal	125.16 ± 0.7
114.64 K, Glass	133.7 ± 0.73
115.5 K, Crystal	126.62 ± 0.71
116.67 K, Glass	135.05 ± 0.74
117.53 K, Crystal	127.63 ± 0.7
118.69 K, Glass	136.36 ± 0.75
119.57 K, Crystal	128.57 ± 0.71
120 K, Crystal	128.8 ± 0.75
120.72 K, Glass	137.61 ± 0.75
121.6 K, Crystal	129.71 ± 0.72
